These results are taken from publication PMC12365925, “Structural insights into a bacterial terpene cyclase fused with haloacid Dehalogenase-like phosphatase” (Chemical Science, 2025).

What is called Km is the concentration of substrate that gives half-maximal velocity.

This assay has as its target T1, AsDMS (wild-type drimenol synthase) (Aquimarina spongiae, UniProt A0A1M6CXF0).
T1 construct: gene SAMN04488508_102320; wild-type, bifunctional N-terminal HAD and C-terminal TCbeta domains; dimer by gel filtration
The assay is described as follows: steady-state kinetics of dephosphorylation. The format is biochemical. As to conditions: HAD domain phosphatase site, Mg2+-dependent.

The structures appear in SMILES notation.

T1 sequence (A0A1M6CXF0 entry or part of it): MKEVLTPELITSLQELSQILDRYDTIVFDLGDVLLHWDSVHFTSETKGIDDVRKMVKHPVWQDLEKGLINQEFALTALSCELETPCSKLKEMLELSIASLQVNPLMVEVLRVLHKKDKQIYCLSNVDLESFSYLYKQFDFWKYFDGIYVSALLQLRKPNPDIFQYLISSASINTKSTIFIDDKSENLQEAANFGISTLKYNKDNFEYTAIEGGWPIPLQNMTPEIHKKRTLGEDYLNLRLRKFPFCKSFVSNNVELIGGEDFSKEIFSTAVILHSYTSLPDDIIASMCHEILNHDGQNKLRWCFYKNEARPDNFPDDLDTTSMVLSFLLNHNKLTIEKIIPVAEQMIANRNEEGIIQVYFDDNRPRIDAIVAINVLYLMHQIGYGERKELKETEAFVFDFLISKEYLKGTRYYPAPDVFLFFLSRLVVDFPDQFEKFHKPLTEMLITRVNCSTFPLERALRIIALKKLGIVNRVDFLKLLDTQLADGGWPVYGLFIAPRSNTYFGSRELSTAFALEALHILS

Take `CC1=CC[C@H]2C(C)(C)CCC[C@]2(C)[C@H]1COP(=O)(O)O` [compound 3, drimenyl monophosphate]: the Km was 5.81 ± 0.81 µM.
